Laboratory results reported in patent US7064120B2, “Tricyclic pyridyl carboxamides and derivatives thereof tocolytic oxytocin receptor antagonists” (Wyeth, priority 2001, dated 2006).

Molecular target: T1, human vasopressin V1a receptor subtype (Homo sapiens, UniProt P37288)
T1 construct: host or cells: CHO cells, stably transfected (pZeoSV vector for the Thibonnier line)
Experiment: Vasopressin binding in CHO cell membranes expressing human vasopressin V1a subtype receptors ([3H]Manning ligand radioligand binding)
Settings: for IC50: value in parentheses
In short: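 Radioligand displacement: [3H]Manning ligand, added as 8 nM stock, binds human V1a receptor in CHO-cell membranes (25–50 μg/well), pH 7.4 Tris buffer with protease inhibitors, 60 min room temperature. Bound counts collected by filter harvesting; values are percent inhibition at stated concentration or nanomolar IC50.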

T1 sequence (P37288 whole entry): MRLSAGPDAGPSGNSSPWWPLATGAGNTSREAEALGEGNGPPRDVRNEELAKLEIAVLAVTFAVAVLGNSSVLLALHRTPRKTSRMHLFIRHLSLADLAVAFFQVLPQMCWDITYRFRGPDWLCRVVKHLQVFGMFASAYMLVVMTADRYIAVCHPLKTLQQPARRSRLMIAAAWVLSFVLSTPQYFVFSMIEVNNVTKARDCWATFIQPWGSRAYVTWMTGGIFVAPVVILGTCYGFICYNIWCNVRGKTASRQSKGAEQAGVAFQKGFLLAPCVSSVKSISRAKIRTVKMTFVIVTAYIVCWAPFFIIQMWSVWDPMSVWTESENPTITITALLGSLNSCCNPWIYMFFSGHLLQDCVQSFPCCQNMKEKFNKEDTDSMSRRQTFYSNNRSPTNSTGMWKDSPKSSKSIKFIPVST

| SMILES | IC50 [nM] | inhibition at 0.1 µM (100 nM) [%] | also measured |
| --- | --- | --- | --- |
| COc1cc(-c2ccccc2C(F)(F)F)c(Cl)cc1C(=O)N1Cc2ccc(C(=O)N(C)Cc3cccnc3)n2Cc2ccccc21 [Example 5, 10-{[6-Chloro-3-methoxy-2′-trifluoromethyl-[1,1′-biphenyl]-4-yl]carbonyl}-N-methyl-N-(pyridin-3-ylmethyl)-10,11-dihydro-5H-pyrrolo[2,1-c][1,4]benzodiazepine-3-carboxamide] | > 3000 | – | – |
| Cc1ccccc1-c1ccc(C(=O)N2Cc3ccc(C(=O)N(C)CCc4ccccn4)n3Cc3ccccc32)cc1 [Example 68, N-Methyl-10-[(2′-methyl-[1,1′-biphenyl]-4-yl)carbonyl]-N-[2-(2-pyridinyl)ethyl]-10,11-dihydro-5H-pyrrolo[2,1-c][1,4]benzodiazepine-3-carboxamide] | – | 81 | – |
| COc1cccc(-c2cc(OC)c(C(=O)N3Cc4ccc(C(=O)N(C)CCc5ccccn5)n4Cc4ccccc43)cc2Cl)c1 [Example 70, 10-[(6-Chloro-3,3′-dimethoxy-[1,1′-biphenyl]-4-yl)carbonyl]-N-methyl-N-[2-(2-pyridinyl)ethyl]-10,11-dihydro-5H-pyrrolo[2,1-c][1,4]benzodiazepine-3-carboxamide] | – | 8 | – |
| Cc1ccccc1-c1ccc(C(=O)N2Cc3ccc(C(=O)N(C)CCc4ccccn4)n3Cc3ccccc32)cc1C [Example 66, 10-[(2,2′-Dimethyl-[1,1′-biphenyl]-4-yl)carbonyl]-N-methyl-N-[2-(2-pyridinyl)ethyl]-10,11-dihydro-5H-pyrrolo[2,1-c][1,4]benzodiazepine-3-carboxamide] | – | 58 | – |
| Cc1cc(C(=O)N2Cc3ccc(C(=O)N4CCN(c5ccncc5)CC4)n3Cc3ccccc32)ccc1-c1ccccc1C(F)(F)F [Example 1] | – | – | V1a % inhibition @ 100 nM (100 nM): 9% |
| CN(CCc1ccccn1)C(=O)c1ccc2n1Cc1ccccc1N(C(=O)c1ccc(-c3cccc4ccccc34)cc1Cl)C2 [Example 73, 10-[2-Chloro-4-(naphthalen-1-yl)benzoyl]-N-methyl-N-[2-(2-pyridinyl)ethyl]-10,11-dihydro-5H-pyrrolo[2,1-c][1,4]benzodiazepine-3-carboxamide] | – | 6 | – |
| COc1cccc(-c2ccc(C(=O)N3Cc4ccc(C(=O)N(C)CCc5ccccn5)n4Cc4ccccc43)cc2C)c1 [Example 62, 10-[(3′-Methoxy-2-methyl-[1,1′-biphenyl]-4-yl)carbonyl]-N-methyl-N-[2-(2-pyridinyl)ethyl]-10,11-dihydro-5H-pyrrolo[2,1-c][1,4]benzodiazepine-3-carboxamide] | 177 | – | – |
| COc1cc(C(=O)N2Cc3ccc(C(=O)N(C)Cc4cccnc4)n3Cc3ccccc32)ccc1-c1ccccc1C(F)(F)F [Example 7, 10-{[2-Methoxy-2′-trifluoromethyl-[1,1′-biphenyl]-4-yl]carbonyl}-N-methyl-N-(pyridin-3-ylmethyl)-10,11-dihydro-5H-pyrrolo[2,1-c][1,4]benzodiazepine-3-carboxamide] | 803 | – | – |
| Cc1ccccc1-c1ccc(C(=O)N2Cc3ccc(C(=O)N4CCN(c5ccccn5)CC4)n3Cc3ccccc32)cc1 [Example 79, {10-[(2′-Methyl-[1,1′-biphenyl]-4-yl)carbonyl]-10,11-dihydro-5H-pyrrolo[2,1-c][1,4]benzodiazepin-3-yl}[4-(2-pyridinyl)-1-piperazinyl]methanone] | – | 18 | – |
| COc1ccccc1-c1ccc(C(=O)N2Cc3ccc(C(=O)N4CCN(c5ccccn5)CC4)n3Cc3ccccc32)cc1 [Example 78, {10-[(2′-Methoxy-[1,1′-biphenyl]-4-yl)carbonyl]-10,11-dihydro-5H-pyrrolo[2,1-c][1,4]benzodiazepin-3-yl}[4-(2-pyridinyl)-1-piperazinyl]methanone] | – | 6 | – |
| COc1cc(C(=O)N2Cc3ccc(C(=O)N(C)CCc4ccccn4)n3Cc3ccccc32)ccc1-c1ccccc1C [Example 69, 10-[(2-Methoxy-2′-methyl-[1,1′-biphenyl]-4-yl)carbonyl]-N-methyl-N-[2-(2-pyridinyl)ethyl]-10,11-dihydro-5H-pyrrolo[2,1-c][1,4]benzodiazepine-3-carboxamide] | – | 72 | – |
| COc1cc(C(=O)N2Cc3ccc(C(=O)N(C)Cc4ccc[n+]([O-])c4)n3Cc3ccccc32)ccc1-c1ccccc1C(F)(F)F [Example 8, 10-{[2-Methoxy-2′-trifluoromethyl-[1,1′-biphenyl]-4-yl]carbonyl}-N-methyl-N-(1-oxo-pyridin-3-ylmethyl)-10,11-dihydro-5H-pyrrolo[2,1-c][1,4]benzodiazepine-3-carboxamide] | 801 | – | – |
| Cc1ccccc1-c1ccc(C(=O)N2Cc3ccc(C(=O)N4CCN(c5ccccn5)CC4)n3Cc3ccccc32)cc1C [Example 76, {10-[(2,2′-Dimethyl-[1,1′-biphenyl]-4-yl)carbonyl]-10,11-dihydro-5H-pyrrolo[2,1-c][1,4]benzodiazepin-3-yl}[4-(2-pyridinyl)-1-piperazinyl]methanone] | – | 11 | – |
| COc1cc(-c2ccccc2Cl)c(Cl)cc1C(=O)N1Cc2ccc(C(=O)N(C)Cc3cccnc3)n2Cc2ccccc21 [Example 6, 10-[(2′,6-Dichloro-3-methoxy-[1,1′-biphenyl]-4-yl)carbonyl]-N-methyl-N-(pyridin-3-ylmethyl)-10,11-dihydro-5H-pyrrolo[2,1-c][1,4]benzodiazepine-3-carboxamide] | 928 | – | – |
| Cc1cc(C(=O)N2Cc3ccc(C(=O)N4CCN(Cc5ccc[n+]([O-])c5C)CC4)n3Cc3ccccc32)ccc1-c1ccccc1C(F)(F)F [Example 3, 3-({4-[(2-Methyl-1-oxidopyridin-3-yl)methyl]piperazin-1-yl}carbonyl)-10-{[2-methyl-2′-trifluoromethyl-[1,1′-biphenyl]-4-yl]carbonyl}-10,11-dihydro-5H-pyrrolo[2,1-c][1,4]benzodiazepine] | > 3000 | – | – |
| COc1cc(C(=O)N2Cc3ccc(C(=O)N(C)CCc4ccccn4)n3Cc3ccccc32)ccc1-c1cccc2ccccc12 [Example 71, 10-[3-Methoxy-4-(naphthalen-1-yl)benzoyl]-N-methyl-N-[2-(2-pyridinyl)ethyl]-10,11-dihydro-5H-pyrrolo[2,1-c][1,4]benzodiazepine-3-carboxamide] | – | 20 | – |

Continued, in another order:

| IC50 [nM] | inhibition at 0.1 µM (100 nM) [%] | SMILES | also measured |
| --- | --- | --- | --- |
| – | 32 | COc1ccccc1-c1ccc(C(=O)N2Cc3ccc(C(=O)N(C)Cc4cccnc4)n3Cc3ccccc32)cc1 [Example 104, 10-[(2′-Methoxy-[1,1′-biphenyl]-4-yl)carbonyl]-N-methyl-N-(3-pyridinylmethyl)-10,11-dihydro-5H-pyrrolo[2,1-c][1,4]benzodiazepine-3-carboxamide] | – |
| – | 8 | COc1ccccc1-c1ccc(C(=O)N2Cc3ccc(C(=O)NCc4ccncc4)n3Cc3ccccc32)cc1C [Example 88, 10-[(2′-Methoxy-2-methyl-[1,1′-biphenyl]-4-yl)carbonyl]-N-(4-pyridinylmethyl)-10,11-dihydro-5H-pyrrolo[2,1-c][1,4]benzodiazepine-3-carboxamide] | – |
| – | -6 | COc1cc(-c2ccccc2C)c(Cl)cc1C(=O)N1Cc2ccc(C(=O)N3CCN(c4ccccn4)CC3)n2Cc2ccccc21 [Example 81, {10-[(6-Chloro-3-methoxy-2′-methyl-[1,1′-biphenyl]-4-yl)carbonyl]-10,11-dihydro-5H-pyrrolo[2,1-c][1,4]benzodiazepin-3-yl}[4-(2-pyridinyl)-1-piperazinyl]methanone] | – |
| 449 | – | COc1ccccc1-c1ccc(C(=O)N2Cc3ccc(C(=O)N(C)Cc4cccnc4)n3Cc3ccccc32)cc1OC [Example 103, 10-[(2,2′-Dimethoxy-[1,1′-biphenyl]-4-yl)carbonyl]-N-methyl-N-(3-pyridinylmethyl)-10,11-dihydro-5H-pyrrolo[2,1-c][1,4]benzodiazepine-3-carboxamide] | – |
| – | 0 | COc1cc(-c2ccccc2C)c(Cl)cc1C(=O)N1Cc2ccc(C(=O)NCc3ccncc3)n2Cc2ccccc21 [Example 94, 10-[(6-Chloro-3-methoxy-2′-methyl-[1,1′-biphenyl]-4-yl)carbonyl]-N-(4-pyridinylmethyl)-10,11-dihydro-5H-pyrrolo[2,1-c][1,4]benzodiazepine-3-carboxamide] | – |
| – | 0 | Cc1ccccc1-c1ccc(C(=O)N2Cc3ccc(C(=O)N(C)Cc4cccnc4)n3Cc3ccccc32)cc1 [Example 105, N-Methyl-10-[(2′-methyl-[1,1′-biphenyl]-4-yl)carbonyl]-N-(3-pyridinylmethyl)-10,11-dihydro-5H-pyrrolo[2,1-c][1,4]benzodiazepine-3-carboxamide] | – |
| 1600 | – | Cc1cc(C(=O)N2Cc3ccc(C(=O)N(C)Cc4cccnc4)n3Cc3ccccc32)ccc1-c1ccccc1C(F)(F)F [Example 112, N-Methyl-10-{[2-methyl-2′-trifluoromethyl-[1,1′-biphenyl]-4-yl]carbonyl}-N-(3-pyridinylmethyl)-10,11-dihydro-5H-pyrrolo[2,1-c][1,4]benzodiazepine-3-carboxamide] | – |
| 355 | – | COc1ccccc1-c1ccc(C(=O)N2Cc3ccc(C(=O)N(C)Cc4cccnc4)n3Cc3ccccc32)cc1C [Example 101, 10-[(2′-Methoxy-2-methyl-[1,1′-biphenyl]-4-yl)carbonyl]-N-methyl-N-(3-pyridinylmethyl)-10,11-dihydro-5H-pyrrolo[2,1-c][1,4]benzodiazepine-3-carboxamide] | – |
| – | 7 | COc1cc(C(=O)N2Cc3ccc(C(=O)NCc4ccncc4)n3Cc3ccccc32)ccc1-c1cccc2ccccc12 [Example 96, 10-[3-Methoxy-4-(naphthalen-1-yl)benzoyl]-N-(4-pyridinylmethyl)-10,11-dihydro-5H-pyrrolo[2,1-c][1,4]benzodiazepine-3-carboxamide] | – |
| – | 10 | Cc1cc(C(=O)N2Cc3ccc(C(=O)NCc4ccncc4)n3Cc3ccccc32)ccc1-c1ccccc1C(F)(F)F [Example 100, 10-{[2-Methyl-2′-trifluoromethyl-[1,1′-biphenyl]-4-yl]carbonyl}-N-(4-pyridinylmethyl)-10,11-dihydro-5H-pyrrolo[2,1-c][1,4]benzodiazepine-3-carboxamide] | – |
